Measured values published in patent US11590117B2, “Treatment of a hematologic malignancy with 2-(4-chlorophenyl)-n-((2-(2,6-dioxopiperidin-3-yl)-1-oxoisoindolin-5-yl)methyl)-2,2-difluoroacetamide” (priority 2016, dated 2023).
Where two headings read alike, the source gives them in different places.

Assays:
[1] = tested on: AML cell lines; test: CellTiter-Glo (CTG) cell proliferation assay, 72 hours, panel of 11 AML cell lines; assay type: cell-based; settings: Homo sapiens, 10 out of the 11 AML cell lines tested (sensitive lines), read-out: antiproliferative IC50 values (range)
Experimental: Preparation of Solutions of Test Article: Compounds were plated into black 384-well plates (Corning Inc.) to a final DMSO volume of 0.1% assuming a maximal volume of 50 μL. A 10-point dose response starting at 10 μM with a 1:3 dilution was printed in duplicate by acoustic dispense using the EDC ATS-100 platform.
Cell Proliferation Assays: The effect of Compound 1 on the proliferation/viability of the hematological cell lines (Table 1 Table, Table 2 and Table 3), THLE-2, or PBMCs was assessed after 72 hours incubation using CTG (Promega), according to manufacturer's instructions. Hematological cell lines were dispensed into compound plates by a Multidrop™ Combi Reagent Dispenser (Thermo Scientific, Waltham, Mass.) at a concentration of 0.1 to 0.3×10^6 cells per mL in a 50 μL total volume. […] At 72 hours, 25 μL per well of CTG was dispensed by a Multidrop™ Combi Reagent Dispenser and adenosine triphosphate (ATP) release by viable cells was measured as relative luminescence units after 30 minutes using the Envision platform.
Results. […] Compound 1 inhibited cell proliferation in 10 out of 11 AML cell lines assessed, as determined by the quantitative assessment of ATP levels present in the media after 72 hours. […]
Proliferation was assessed using the CellTitre-Glo® assay. […] The IC50 for inhibition of cell growth by Compound 1 was determined for each cell line using ActivityBase software.

[2] = tested on: BFU-E (erythroid progenitors); test: cells; assay type: cell-based, human; settings: for IC50: Homo sapiens
Experimental: Experimental design: human bone marrow (BM) CD34+ cells were used to evaluate the potential for BM toxicity induced by Compound 1. In order to test the effects of Compound 1 on the functionality of hematopoietic progenitors, colony forming assays were done by seeding BM CD34+ cells on MethoCult medium. Cells were seeded directly in MethoCult with Compound 1 or cultured in liquid medium with Compound 1 for 2, 4, or 8 hours and then seeded in compound-free MethoCult to evaluate the effect of different exposure times. Early apoptosis induced by Compound 1 on HSC was analyzed by flow cytometry.
Results. Colony forming units (CFU) of common granulocyte/erythrocyte/monocyte/megakaryocyte (CFU-GEMM), CFU of granulocyte/monocyte (CFU-GM), burst forming unit of erythrocytes (BFU-E), and CFU of erythrocytes (CFU-E) in cultures exposed to Compound 1 or DMSO were scored on STEMvision.
Bone marrow CD34+ cells from normal donors were incubated with Compound 1 in MethoCult medium. Colony numbers for CFU-GM and BFU-E progenitors were counted using STEMVision automatic colony counting instrument and software and normalized to the colony number of the DMSO control. Results plotted as percentage of DMSO control vs concentration of Compound 1 were used to determine IC50 values. Data are shown as mean standard error of the mean of n=3 technical replicates. Donors were HD10, HD14, HD18, and HD19.
FIGS. 33A and 33B provide, colony numbers after preincubation of bone marrow CD34+ cells with Compound 1 for 4 or 8 hours, respectively, in Iscove's medium, followed by incubation in MethoCult medium without Compound 1 for 14 days. FIG. 33C provides colony numbers after incubation of bone marrow CD34+ cells in MethoCult medium in continuous presence of Compound 1 for 14 days.

[3] = tested on: HR-MDS, sAML and normal bone marrow progenitors; test: SL/M2 stromal co-culture colony forming assay (cell survival assay); assay type: cell-based, human
Experimental: Methods. Mouse stromal cells SL/M2 stably expressing human interleukin-3 (IL-3), granulocyte colony stimulating factor (G-CSF) and stem cell factor (SCF) were cultured to confluency, followed by gamma-irradiation. Human CD34+ bone marrow cells isolated from 3 high-risk MDS patients (HR-MDS), 3 secondary AML patients arising from MDS (sAML) and 5 age-matched healthy donors were then cultured with inactivated SL/M2 cells for a week. Next, human progenitor cells were quantified by FACS and cells were plated in methylcellulose for colony forming assay (cell survival assay). After two weeks, 20-25 colonies were picked from each condition, resuspended and replated in fresh methylcellulose for 2nd round of colony forming assay (cell self-renewal assay).

For `O=C1CCC(N2Cc3cc(CNC(=O)C(F)(F)c4ccc(Cl)cc4)ccc3C2=O)C(=O)N1` (centres unmarked) [Compound 1, 2-(4-chlorophenyl)-N-((2-(2,6-dioxopiperidin-3-yl)-1-oxoisoindolin-5-yl)methyl)-2,2-difluoroacetamide], the IC50 [1] was 0.003 to 0.075 µM, the “reduction in number of BFU-E colonies” value ([2]; 8 hours exposure, Compound 1 ≥111 nM, donors HD46, HD47, HD48, HD50) was “more than 50%” and the IC50 ([2]; 8 hours exposure, donors HD46, HD47, HD48, HD50, read-out: individual IC50 values, BFU-E colonies) was 0.03 to 0.15 µM. The IC50 ([2]; CD34+ cells from four healthy donors, Compound 1 in MethoCult, read-out: IC50, inhibition of erythroid progenitors (BFU-E)) was 0.032 to 0.131 µM and the “colony formation (cell survival)” value [3] was “significant cytotoxicity”.
